Test results reported in patent US20240239804A1, “FUROINDAZOLE DERIVATIVES AS ANTAGONISTS OR INHIBITORS OF GPR84” (Bayer Aktiengesellschaft, priority 2021, published 2024).

Target: T1, human GPR84 receptor (Homo sapiens, UniProt Q9NQS5)
T1 construct: frozen aliquots prepared by acCELLerate; host or cells: CHO-K1
Test: cAMP HTRF assay for identification of cellular GPR84 antagonists
Assay type: cell-based
Conditions: CHO-K1 cells stably expressing human GPR84; Forskolin plus agonist 6-OAU; cAMP HTRF readout; average or median values
Description: cAMP HTRF® Assay for Identification of Cellular GPR84 Antagonists
By using a Homogenous Time-Resolved Fluorescence (HTRF®) based assay (#62AM5PEJ, Cisbio, Condolet, France) the inhibition of the Gi-coupled GPR84 receptor can be detected. CHO-K1 cells stably expressing human GPR84 receptor (purchased from DiscoveRx, now Eurofins) were used and treated with Forskolin (F6886, Sigma, Germany) to stimulate membrane adenylyl cyclases and thereby unspecific cAMP formation. Activation of the Gi-coupled GPR84 by a natural or small molecule agonist (e.g. 6-n-octyl aminouracile, inhouse) results in inhibition of cellular cAMP formation which can be released again by antagonists to this receptor. Detection and quantification of cellular cAMP levels in this HTRF assay is achieved by interaction between a fluorescent cAMP tracer (cAMP-d2) and an Eu-cryptate labelled anti-cAMP antibody. Following excitation at 337 nm this pairing allows for the generation of a fluorescence resonance energy transfer (FRET) between the partners and results in FRET induced emissions at 665 nm and 620 nm, the latter representing background signal by Eu-cryptate labelled anti-cAMP antibody. Maximal signal is obtained in the absence of any cellular cAMP (no competition for the binding of the tracer to the antibody). Given the combination of the Gi coupling properties of GPR84 and the competitive nature of the detection system agonist treatment should result in an increase in the HTRF signal due to lowered cAMP levels. Any signal decrease in the presence of Forskolin, agonist and compound are indicative of antagonist mediated abrogation of GPR84 signalling.
For the assay, frozen aliquots of CHO-K1 cells expressing hGPR84 (prepared by acCELLerate, Hamburg, Germany) were thawed and a cell suspension (1.67E+06 cells/mL) in assay media (Ham's F12 Nutrient Mix, Thermo Fisher Scientific, Waltham, USA; 5% fetal calf serum, Biomol, Hamburg, Germany) containing cAMP-d2 (dilution 1:20, supplied with the kit #62AM5PEJ, Cisbio, Condolet, France) was prepared. After recovery of cells for 20 minutes at 37° C., 3 μL/well cell suspension including cAMP-d2 were added to a pre-dispensed assay plate (Greiner Bio-One, Kremsmuenster, Austria) containing 50 nl/well test compound in 100% DMSO or 100% DMSO as control. This was followed by a 30 minute incubation step at room temperature. The stimulation time was started by addition of 2 μL/well assay media containing 2.5×EC80 agonist 6-OAU and 2.5×EC90 Forskolin (negative control: 2.5×EC90 Forskolin in assay media) and was continued for 30 minutes at room temperature. The reaction was stopped by addition of 3 μL/well lysis buffer containing cAMP Eu-Cryptate antibody (dilution 1:20) (both supplied with the kit #62AM5PEJ, Cisbio, Condolet, France). To enable complete lysis, plates were incubated for 60 minutes at room temperature before measurement in an HTRF reader, e.g. a PHERAstar (BMG Labtech, Ortenberg, Germany).
From the fluorescence emissions at 665 nm (FRET) and at 620 nm (background signal of Eu-cryptate) the ratio (emission at 665 nm divided by emission at 620 nm×10000) was calculated and the data were normalized (reaction without test compound, only 100% DMSO=0% inhibition; all other assay components except agonist=100% inhibition). For dose response testing on the same microtiter plate, compounds were tested at 11 different concentrations in the range of 20 μM to 0.07 nM (20 μM, 5.7 μM, 1.6 μM, 0.47 μM, 0.13 μM, 38 nM, 11 nM, 3.1 nM, 0.89 nM, 0.25 and 0.07 nM; dilution series prepared before the assay at the level of the 100-fold conc. stock solutions by serial 1:3.5 dilutions in 100% DMSO) in duplicate values for each concentration. IC50 values were calculated by 4-parameter fitting using a commercial software package (Genedata Screener, Basel, Switzerland).
Examples were tested in selected biological assays one or more times. […]

T1 sequence (Q9NQS5 whole entry): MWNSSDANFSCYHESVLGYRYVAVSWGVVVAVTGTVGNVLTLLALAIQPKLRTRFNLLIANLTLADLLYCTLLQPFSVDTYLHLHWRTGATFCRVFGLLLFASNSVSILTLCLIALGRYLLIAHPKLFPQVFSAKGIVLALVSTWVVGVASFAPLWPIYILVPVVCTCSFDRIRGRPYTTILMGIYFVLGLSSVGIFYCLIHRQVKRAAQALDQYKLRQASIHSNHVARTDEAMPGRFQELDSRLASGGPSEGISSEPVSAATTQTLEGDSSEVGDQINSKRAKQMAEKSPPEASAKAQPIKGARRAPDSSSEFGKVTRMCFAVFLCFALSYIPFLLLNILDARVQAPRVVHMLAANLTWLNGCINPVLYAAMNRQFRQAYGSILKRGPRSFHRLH

| SMILES | IC50 |
| --- | --- |
| Cc1c(C(=O)NCc2cnn3ccccc23)oc2c1-c1nn(Cc3ccc(Cl)cc3)cc1CC2 [Example 50, 2-[(4-chlorophenyl)methyl]-8-methyl-N-[(pyrazolo[1,5-a]pyridin-3-yl)methyl]-4,5-dihydro-2H-furo[2,3-g]indazole-7-carboxamide] | 2690 nM |
| Cc1c(C(=O)N2CCc3ccccc3C2)oc2c1-c1nn(Cc3ccc(Cl)cc3)cc1CC2 [Example 61, {2-[(4-chlorophenyl)methyl]-8-methyl-4,5-dihydro-2H-furo[2,3-g]indazol-7-yl}(3,4-dihydroisoquinolin-2(1H)-yl)methanone] | 6020 nM |
| Cc1c(C(=O)NCc2ccc(C(N)=O)cc2)oc2c1-c1nn(Cc3ccc(Cl)cc3)cc1CC2 [Example 42, N-[(4-carbamoylphenyl)methyl]-2-[(4-chlorophenyl)methyl]-8-methyl-4,5-dihydro-2H-furo[2,3-g]indazole-7-carboxamide] | 720 nM |
| Cc1c(C(=O)NCc2ccon2)oc2c1-c1nn(Cc3ccc(Cl)cc3)cc1CC2 [Example 27, 2-[(4-chlorophenyl)methyl]-8-methyl-N-[(1,2-oxazol-3-yl)methyl]-4,5-dihydro-2H-furo[2,3-g]indazole-7-carboxamide] | 150 nM |
| Cc1c(C(=O)NCc2nccs2)oc2c1-c1nn(Cc3ccc(Cl)cc3)cc1CC2 [Example 38, 2-[(4-chlorophenyl)methyl]-8-methyl-N-[(1,3-thiazol-2-yl)methyl]-4,5-dihydro-2H-furo[2,3-g]indazole-7-carboxamide] | 210 nM |
| Cc1c(C(=O)NCCN2CCCCC2)oc2c1-c1nn(Cc3ccc(Cl)cc3)cc1CC2 [Example 25, 2-[(4-chlorophenyl)methyl]-8-methyl-N-[2-(piperidin-1-yl)ethyl]-4,5-dihydro-2H-furo[2,3-g]indazole-7-carboxamide] | 1370 nM |
| Cc1c(C(=O)NCc2cccn2C)oc2c1-c1nn(Cc3ccc(Cl)cc3)cc1CC2 [Example 44, 2-[(4-chlorophenyl)methyl]-8-methyl-N-[(1-methyl-1H-pyrrol-2-yl)methyl]-4,5-dihydro-2H-furo[2,3-g]indazole-7-carboxamide] | 890 nM |
| Cc1c(C(=O)NCC2CCCO2)oc2c1-c1nn(Cc3ccc(Cl)cc3)cc1CC2 (single isomer, unassigned) [Example 21-2] | 89 nM |
| CC(=O)N1CCN(C(=O)CNC(=O)c2oc3c(c2C)-c2nn(Cc4ccc(Cl)cc4)cc2CC3)CC1 [Example 29, N-[2-(4-acetylpiperazin-1-yl)-2-oxoethyl]-2-[(4-chlorophenyl)methyl]-8-methyl-4,5-dihydro-2H-furo[2,3-g]indazole-7-carboxamide] | 8210 nM |
| Cc1c(C(=O)NCCN2CCCC2)oc2c1-c1nn(Cc3cccc(Cl)c3)cc1CC2 [Example 18, 2-[(3-chlorophenyl)methyl]-8-methyl-N-[2-(pyrrolidin-1-yl)ethyl]-4,5-dihydro-2H-furo[2,3-g]indazole-7-carboxamide] | 1000 nM |
| Cc1c(C(=O)NCCN2CCN(C)CC2)oc2c1-c1nn(Cc3ccc(Cl)cc3)cc1CC2 [Example 23, 2-[(4-chlorophenyl)methyl]-8-methyl-N-[2-(4-methylpiperazin-1-yl)ethyl]-4,5-dihydro-2H-furo[2,3-g]indazole-7-carboxamide] | 300 nM |
| Cc1c(C(=O)NCc2ccccn2)oc2c1-c1nn(Cc3ccc(Cl)cc3)cc1CC2 [Example 39, 2-[(4-chlorophenyl)methyl]-8-methyl-N-[(pyridin-2-yl)methyl]-4,5-dihydro-2H-furo[2,3-g]indazole-7-carboxamide] | 280 nM |
| Cc1c(C(=O)NCCN2CCC2)oc2c1-c1nn(Cc3ccc(Cl)cc3)cc1CC2 [Example 26, N-[2-(azetidin-1-yl)ethyl]-2-[(4-chlorophenyl)methyl]-8-methyl-4,5-dihydro-2H-furo[2,3-g]indazole-7-carboxamide] | 1630 nM |
| Cc1c(C(=O)NCCN2CCC2)oc2c1-c1nn(Cc3cccc(Cl)c3)cc1CC2 [Example 20, N-[2-(azetidin-1-yl)ethyl]-2-[(3-chlorophenyl)methyl]-8-methyl-4,5-dihydro-2H-furo[2,3-g]indazole-7-carboxamide] | 1540 nM |
| Cc1c(C(=O)NCC[S+](C)[O-])oc2c1-c1nn(Cc3ccc(Cl)cc3)cc1CC2 (stereo not drawn) [Example 63, 2-[(4-chlorophenyl)methyl]-NV-[2-(methanesulfinyl)ethyl]-8-methyl-4,5-dihydro-2H-furo[2,3-g]indazole-7-carboxamide] | 6150 nM |
| Cc1c(C(=O)NCC(=O)NC2CC2)oc2c1-c1nn(Cc3ccc(Cl)cc3)cc1CC2 [Example 33, 2-[(4-chlorophenyl)methyl]-N-[2-(cyclopropylamino)-2-oxoethyl]-8-methyl-4,5-dihydro-2H-furo[2,3-g]indazole-7-carboxamide] | 3310 nM |
| Cc1c(C(=O)NCC2CCCO2)oc2c1-c1nn(Cc3ccccc3Cl)cc1CC2 (racemic) [Example 9, 2-[(2-chlorophenyl)methyl]-8-methyl-N-[(2RS)-tetrahydrofuran-2-ylmethyl]-4,5-dihydro-2H-furo[2,3-g]indazole-7-carboxamide] | 46 nM |

Further lines, results first:

| IC50 | SMILES |
| --- | --- |
| 13000 nM | Cc1c(C(=O)N(C)Cc2cnn(C)c2)oc2c1-c1nn(Cc3ccc(Cl)cc3)cc1CC2 [Example 76, 2-[(4-chlorophenyl)methyl]-N,8-dimethyl-N-[(1-methyl-1H-pyrazol-4-yl)methyl]-4,5-dihydro-2H-furo[2,3-g]indazole-7-carboxamide] |
| 10300 nM | Cc1c(C(=O)N(C)Cc2ccn(C)n2)oc2c1-c1nn(Cc3ccc(Cl)cc3)cc1CC2 [Example 73, 2-[(4-chlorophenyl)methyl]-N,8-dimethyl-N-[(1-methyl-1H-pyrazol-3-yl)methyl]-4,5-dihydro-2H-furo[2,3-g]indazole-7-carboxamide] |
| 280 nM | Cc1c(C(=O)NCc2ccon2)oc2c1-c1nn(Cc3ccc(F)cc3Cl)cc1CC2 [Example 94] |
| 16400 nM | Cc1c(C(=O)N2CCC(C(N)=O)CC2)oc2c1-c1nn(Cc3ccc(Cl)cc3)cc1CC2 [Example 83, 1-{2-[(4-chlorophenyl)methyl]-8-methyl-4,5-dihydro-2H-furo[2,3-g]indazole-7-carbonyl}piperidine-4-carboxamide] |
| 18900 nM | Cc1c(C(=O)N2CCS(=O)(=O)CC2)oc2c1-c1nn(Cc3ccc(Cl)cc3)cc1CC2 [Example 90] |
| 7970 nM | Cc1c(C(=O)N2CC3CC3C2)oc2c1-c1nn(Cc3ccc(Cl)cc3)cc1CC2 (stereo not drawn) [Example 68, (3-azabicyclo[3.1.0]hexan-3-yl){2-[(4-chlorophenyl)methyl]-8-methyl-4,5-dihydro-2H-furo[2,3-g]indazol-7-yl}methanone] |
| 17100 nM | Cc1c(C(=O)N2CCCCC2)oc2c1-c1nn(Cc3ccc(Cl)cc3)cc1CC2 [Example 87] |
| 10800 nM | Cc1c(C(=O)N(C)Cc2ncc[nH]2)oc2c1-c1nn(Cc3ccc(Cl)cc3)cc1CC2 [Example 74, 2-[(4-chlorophenyl)methyl]-N-[(1H-imidazol-2-yl)methyl]-N,8-dimethyl-4,5-dihydro-2H-furo[2,3-g]indazole-7-carboxamide] |
| 7590 nM | Cc1c(C(=O)N(C)Cc2ccncc2)oc2c1-c1nn(Cc3ccc(Cl)cc3)cc1CC2 [Example 66, 2-[(4-chlorophenyl)methyl]-/,8-dimethyl-N-[(pyridin-4-yl)methyl]-4,5-dihydro-2H-furo[2,3-g]indazole-7-carboxamide] |
| 820 nM | Cc1c(C(=O)NCCN2CCN(C)CC2)oc2c1-c1nn(Cc3ccc(F)cc3Cl)cc1CC2 [Example 93] |
